Results as given in patent US20260345582A1, “PRODRUG FOR ANTI-AGING RELATED DISEASES AND USE METHOD THEREOF” (Beijing SunCell Bio-Medical Co., Ltd., priority 2022, published 2026).

Experiments:
[1] = test system: platelets in peripheral blood; assay: in vivo platelet toxicity test, multiple intraperitoneal injections; parameters: species or system C57 mice
Description: B. The schematic diagram of the multiple dosing and the subsequent blood routine examinations in mice. The drug was administered on 3 consecutive days per week, followed by a 4-day interval, for 3 weeks continuous administration. The drug was administered by intraperitoneal injection in the afternoon on days 0, 1, 2, 7, 8, 9, 14, 15, and 16, and the blood was collected and tested in the morning on days 1, 3, 5, 8, 10, 12, 15, 17, and 19, respectively.
C. Results of the platelet counts in peripheral blood on days 1, 3, 5, 8, 10, 12, 15, 17, and 19 after multiple intraperitoneal injections of different doses of the given drug. Each dot in the panel represents the count of platelets detected in 1 mouse at that time point (n=4 mice); mpk represents the milligram dose per kilogram of the body weight, A13 represents the parent compound A1331852 administration group, and A13bGa1 represents the prodrug obtained after the β-gal modification of A13. The dashed line in the panel indicates the mean value of platelet counts in mice in the single vehicle administration control group.
In Vivo Platelet Toxicity Test
A single administration of A13 or A13bG was performed. Female 5-6 week old C57 mice were treated with a single intraperitoneal injection. A13 and A13bG were administered in three different dose groups of 2, 5, and 20 mg/kg. Approximately 50 μl of blood was collected from each mouse at different time points into the EDTA tubes (RAM Scientific) by means of inner canthal blood extraction, and analyzed using a haematology analyzer for a blood routine examination and a platelet counting. Multiple administrations of A13 or A13bG were performed. Female 5-6 week old C57 mice were treated with multiple intraperitoneal injections. A13 and A13bG were administered in three different dose groups of 2, 5 and 20 mg/kg, three consecutive days per week, followed by a 4-day withdrawal for 3 weeks. The time points of administration were in the afternoon of days 0, 1, 2, 7, 8, 9, 14, 15, and 16, and the time points of blood collection and testing were in the morning of days 1, 3, 5, 8, 10, 12, 15, 17, and 19, respectively.
For a blood routine examination, 50 μl of fresh blood was collected from each mouse and immediately mixed with EDTA. Blood samples were analyzed by Celltac Alpha MEK-6400 series haematology analyzer (Nihon Kohden, MEK-6400). Data were expressed as the number of different blood cells or platelets per μl of blood. For the serum biochemical analysis, the blood samples were collected, coagulated for 2 hours at room temperature or overnight at 4 °C, and then centrifuged (1000 g, 10 minutes) to obtain serum. A 200 μl of serum was aliquoted and analyzed for alanine aminotransferase (ALT), aspartate aminotransferase (AST), uric acid (UA), and creatinine (CREA) by a chemistry analyzer (Mindray, BS-350E).

[2] = test system: mouse model of Bleomycin-induced pulmonary fibrosis; assay: Masson staining of lungs (degree of fibrosis), Bleomycin-induced pulmonary fibrosis; type: in vivo, C57 mice; details: of 6 animals; A13 2 mg/kg, A13bGa1 5 mg/kg
Description: (§1) A. Modelling of a mouse model of Bleomycin-induced pulmonary fibrosis, and the schematic diagram of treatment. Mice were modelled with Bleomycin administered via tracheal instillation on day 0, and the treatment with intraperitoneal injection of the drug was started on day 4. The drug was administered for 3 consecutive days per week, followed by a 4-day withdrawal, for 4 weeks.
D. Representative results of HE and Masson staining of the pathological sections of lungs taken from different groups of mice after execution. Normal represents the saline tracheal instillation modelling control group; Vehicle represents the vehicle administration control group; A13bGa1 represents the prodrug treatment group; A13 represents the A1331852 treatment group. Scale bar: 500 μm.
(§2) All drugs were mixed in 85% physiological saline, 5% DMSO (Sigma, D8418) and 10% Solutol HS 15 (Sigma, 42966), and administered to mice by intraperitoneal (i.p.) injection. To treat the bleomycin-injured young mice, A13 (2 mg/kg), A13bGa1 (5 mg/kg), or an empty vehicle control was administered three consecutive days per week for four weeks. A1331852 (abbreviated as A13) was purchased from MCE.
(§3) Bleomycin-Induced Pulmonary Fibrosis
(§4) Bleomycin was purchased from Selleck. As previously reported (Bivas-Benita et al., Eur J Pharm Biopharm 61, 214-218 (2005)), a transtracheal injection of bleomycin (2 mg/kg) was performed to the young male C57 mice (8-10 weeks old) to induce lung fibrosis. Drug treatment was initiated four days after modelling, and the drug was administered three consecutive days per week for four consecutive weeks, after which the mice were executed for material collection.
Masson trichrome stain kit (Solarbio, G1340) was used to detect fibrosis in the lung tissue. The formalin-fixed, and paraffin-embedded lung sections were dewaxed with xylene, and then rehydrated with 100% alcohol, 95% alcohol and distilled water. The sections were then stained according to the manufacturer's instructions. Afterwards, the sections were rapidly dehydrated with 95% alcohol and 100% alcohol, cleaned with xylene and covered with the coverslips. Images were acquired using a bright-field optical microscope (10× eyepiece) (OLYMPUS, BX43), and the degree of fibrosis of the lung tissue was graded according to the intensity of staining (weakly positive, moderately positive, moderately strong positive, and very strong positive).

[3] = test system: MRC5 cells (human embryonic lung fibroblast cell line); assay: in vitro killing of induced senescent MRC5 cells (CCK-8); type: cell-based; details: lung-derived, FIG. 3G
Description: (§5) Induction of the Cellular Senescence

[4] = test system: HUVEC cells (human umbilical vein endothelial cell line); assay: in vitro killing of induced senescent HUVEC cells (CCK-8); type: cell-based; details: vascular endothelial-derived, FIG. 3F
Description: as §5

[5] = test system: senescent cells (HEF, HELF, A549, MRC5, BJ, HUVEC); assay: in vitro killing of senescent cells, multiple cell models (CCK-8); type: cell-based, human; details: FIG. 3B-3G
Description: as §5

[6] = plasma metabolic stability, human; type: in vitro ADME; details: 120 min
Description: Plasma Metabolic Stability
Termination of the reaction was accomplished by the addition of 3× volume of acetonitrile and centrifugation at 16000 g for 20 minutes. The supernatant was taken for a LC-MS/MS analysis. The chromatographic column: Waters XSelect HSS T3; the flow rate: 500 μL/min; the eluent: A, water (0.1% formic acid); B, acetonitrile (0.1% formic acid); the gradient elution: 0-1.5 min, 5% B, 1.5-9 min, 5%-80% B, 9-12 min, 80%-100% B, 12-14 min, 100% B, 14-14.3 min, 100%-5% B, 14.3-15 min, 5% B.

[7] = test system: mouse model of Bleomycin-induced pulmonary fibrosis; assay: Bleomycin-induced pulmonary fibrosis model, overall therapeutic effect; type: in vivo, C57 mice; details: 5 mg/kg i.p., four weeks
Description: as §1, §2, §3, §4

SMILES | toxic effects on the platelets at the lowest dose ([1]; multiple rounds i.p., 2 mg/kg, 3 consecutive days per week, 3 weeks, FIG. 4C) | destructive effects on the platelets at the three doses tested ([1]; multiple rounds i.p., 2, 5, 20 mg/kg, FIG. 4C) | number of the peripheral blood platelets during monitoring ([1]; multiple rounds i.p., FIG. 4C) | degree of fibrosis, Masson staining: Moderately strong positive (+++) [2] | degree of fibrosis, Masson staining: extremely strong positive (++++) [2] | degree of fibrosis, Masson staining: moderately positive (++) [2] | degree of fibrosis, Masson staining: not positive (−) [2] | degree of fibrosis, Masson staining: weakly positive (+) [2] | killing of the senescent cells, efficiency and selectivity [3] | killing of the senescent cells, efficiency and selectivity [4] | overall killing activity on the senescent cells compared with the parent compound A13 [5] | changes in the number of the peripheral blood platelets ([1]; multi-round i.p. regimen, FIG. 4C) | toxic side effects on the platelets ([1]; multi-round i.p. regimen, in contrast to A13, FIG. 4C) | metabolised at 2 h, 10 µM ([6]; 10 μM prodrug, read-out: The peak area after normalisation at minute 120, oxidative dehydrogenation metabolite) | remaining at 2 h, 10 µM ([6]; 10 μM, read-out: The peak area after normalisation at minute 120, initial drug) | anti-inflammatory and anti-fibrotic therapeutic effects [7]
Cc1c(-c2ccc(N3CCc4cccc(C(=O)Nc5nc6ccccc6s5)c4C3)nc2C(=O)O)cnn1CC12CC3CC(CC(C3)C1)C2 [Compound A13, 3-[1-(adamantan-1-ylmethyl)-5-methylpyrazol-4-yl]-6-{8-[(1,3-benzothiazol-2-yl)carbamoyl]-3,4-dihydro-1H-isoquinolin-2-yl}pyridine-2-carboxylic acid] | very serious toxic effects on the platelets | strong destructive effects on the platelets | dramatic fluctuations in the number of the peripheral blood platelets | 1 number of animals | 2 number of animals | 1 number of animals | 0 number of animals | 2 number of animals |  |  |  |  |  |  |  | 
Cc1c(-c2ccc(N3CCc4cccc(C(=O)Nc5nc6ccccc6s5)c4C3)nc2C(=O)OCc2ccc(O[C@@H]3O[C@H](CO)[C@H](O)[C@H](O)[C@H]3O)c([N+](=O)[O-])c2)cnn1CC12CC3CC(CC(C3)C1)C2 [Compound A13bGa1] |  |  |  | 0 number of animals | 0 number of animals | 1 number of animals | 3 number of animals | 2 number of animals | highly efficient and selective in killing the senescent cells | highly efficient and selective in killing the senescent cells | somewhat reduced compared with that of the parent compound A13 | relatively stable | significantly reduced | 0.07% | 99.9% | good anti-inflammatory and anti-fibrotic therapeutic effects
